According to PubChem BioAssay AID1259407 (Chemical Carcinogenesis Research Information System (CCRIS), 2018):
The source made the active and inactive calls. No rule for the calls is given here.

Test system: CCRIS mutagenicity, Ames/micronucleus/aberration tests
Assay: CCRIS mutagenicity studies
Settings: Method: PREINCUBATION

Measured: mutagenic call

Cc1ccc(Cl)cc1
inactive: Test System: AMES SALMONELLA TYPHIMURIUM, Strain/Indicator: TA97, Metabolic Activation: HAMSTER, LIVER, S-9, AROCLOR 1254 (10%) inactive; negative | Test System: AMES SALMONELLA TYPHIMURIUM, Strain/Indicator: TA97, Metabolic Activation: HAMSTER, LIVER, S-9, AROCLOR 1254 (30%) inactive; negative | Test System: AMES SALMONELLA TYPHIMURIUM, Strain/Indicator: TA97, Metabolic Activation: NONE inactive; negative | Test System: AMES SALMONELLA TYPHIMURIUM, Strain/Indicator: TA97, Metabolic Activation: RAT, LIVER, S-9, AROCLOR 1254 (10%) inactive; negative | Test System: AMES SALMONELLA TYPHIMURIUM, Strain/Indicator: TA97, Metabolic Activation: RAT, LIVER, S-9, AROCLOR 1254 (30%) inactive; negative | Test System: AMES SALMONELLA TYPHIMURIUM, Strain/Indicator: TA98, Metabolic Activation: HAMSTER, LIVER, S-9, AROCLOR 1254 (10%) inactive; negative | Test System: AMES SALMONELLA TYPHIMURIUM, Strain/Indicator: TA98, Metabolic Activation: HAMSTER, LIVER, S-9, AROCLOR 1254 (30%) inactive; negative | Test System: AMES SALMONELLA TYPHIMURIUM, Strain/Indicator: TA98, Metabolic Activation: NONE inactive; negative | Test System: AMES SALMONELLA TYPHIMURIUM, Strain/Indicator: TA98, Metabolic Activation: RAT LIVER S-9, PHENOBARBITAL AND BETA-NAPHTHOFLAVONE inactive; negative | Test System: AMES SALMONELLA TYPHIMURIUM, Strain/Indicator: TA98, Metabolic Activation: RAT, LIVER, S-9, AROCLOR 1254 (10%) inactive; negative | Test System: AMES SALMONELLA TYPHIMURIUM, Strain/Indicator: TA98, Metabolic Activation: RAT, LIVER, S-9, AROCLOR 1254 (30%) inactive; negative | Test System: AMES SALMONELLA TYPHIMURIUM, Strain/Indicator: TA100, Metabolic Activation: HAMSTER, LIVER, S-9, AROCLOR 1254 (10%) inactive; negative | Test System: AMES SALMONELLA TYPHIMURIUM, Strain/Indicator: TA100, Metabolic Activation: HAMSTER, LIVER, S-9, AROCLOR 1254 (30%) inactive; negative | Test System: AMES SALMONELLA TYPHIMURIUM, Strain/Indicator: TA100, Metabolic Activation: NONE inactive; negative | Test System: AMES SALMONELLA TYPHIMURIUM, Strain/Indicator: TA100, Metabolic Activation: RAT LIVER S-9, PHENOBARBITAL AND BETA-NAPHTHOFLAVONE inactive; negative | Test System: AMES SALMONELLA TYPHIMURIUM, Strain/Indicator: TA100, Metabolic Activation: RAT, LIVER, S-9, AROCLOR 1254 (10%) inactive; negative | Test System: AMES SALMONELLA TYPHIMURIUM, Strain/Indicator: TA100, Metabolic Activation: RAT, LIVER, S-9, AROCLOR 1254 (30%) inactive; negative | Test System: AMES SALMONELLA TYPHIMURIUM, Strain/Indicator: TA102, Metabolic Activation: NONE inactive; negative | Test System: AMES SALMONELLA TYPHIMURIUM, Strain/Indicator: TA102, Metabolic Activation: RAT LIVER S-9, PHENOBARBITAL AND BETA-NAPHTHOFLAVONE inactive; negative | Test System: AMES SALMONELLA TYPHIMURIUM, Strain/Indicator: TA104, Metabolic Activation: NONE inactive; negative | Test System: AMES SALMONELLA TYPHIMURIUM, Strain/Indicator: TA104, Metabolic Activation: RAT LIVER S-9, PHENOBARBITAL AND BETA-NAPHTHOFLAVONE inactive; negative | Test System: AMES SALMONELLA TYPHIMURIUM, Strain/Indicator: TA1535, Metabolic Activation: HAMSTER, LIVER, S-9, AROCLOR 1254 (10%) inactive; negative | Test System: AMES SALMONELLA TYPHIMURIUM, Strain/Indicator: TA1535, Metabolic Activation: HAMSTER, LIVER, S-9, AROCLOR 1254 (30%) inactive; negative | Test System: AMES SALMONELLA TYPHIMURIUM, Strain/Indicator: TA1535, Metabolic Activation: NONE inactive; negative | Test System: AMES SALMONELLA TYPHIMURIUM, Strain/Indicator: TA1535, Metabolic Activation: RAT LIVER S-9, PHENOBARBITAL AND BETA-NAPHTHOFLAVONE inactive; negative | Test System: AMES SALMONELLA TYPHIMURIUM, Strain/Indicator: TA1535, Metabolic Activation: RAT, LIVER, S-9, AROCLOR 1254 (10%) inactive; negative | Test System: AMES SALMONELLA TYPHIMURIUM, Strain/Indicator: TA1535, Metabolic Activation: RAT, LIVER, S-9, AROCLOR 1254 (30%) inactive; negative | Test System: AMES SALMONELLA TYPHIMURIUM, Strain/Indicator: TA1537, Metabolic Activation: HAMSTER, LIVER, S-9, AROCLOR 1254 (30%) inactive; negative | Test System: AMES SALMONELLA TYPHIMURIUM, Strain/Indicator: TA1537, Metabolic Activation: NONE inactive; negative | Test System: AMES SALMONELLA TYPHIMURIUM, Strain/Indicator: TA1537, Metabolic Activation: RAT LIVER S-9, PHENOBARBITAL AND BETA-NAPHTHOFLAVONE inactive; negative | Test System: AMES SALMONELLA TYPHIMURIUM, Strain/Indicator: TA1537, Metabolic Activation: RAT, LIVER, S-9, AROCLOR 1254 (30%) inactive; negative | Test System: E.COLI, Strain/Indicator: WP2UVRA/PKM101, Metabolic Activation: NONE inactive; negative | Test System: E.COLI, Strain/Indicator: WP2UVRA/PKM101, Metabolic Activation: RAT LIVER S-9, PHENOBARBITAL AND BETA-NAPHTHOFLAVONE inactive; negative | Test System: E.COLI, Strain/Indicator: WP2UVRA, Metabolic Activation: NONE inactive; negative | Test System: E.COLI, Strain/Indicator: WP2UVRA, Metabolic Activation: RAT LIVER S-9, PHENOBARBITAL AND BETA-NAPHTHOFLAVONE inactive; negative
